In patent US10821115B2, “Compounds that inhibit Mcl-1 protein” (priority 2017, dated 2020):
Where two headings read alike, the source gives them in different places.

What was measured:
[1] = target: recombinant human Mcl-1 (residues 171-327) / Bim interaction (Homo sapiens (Human), UniProt Q07820); experiment: biochemical; format: binding; conditions: read-out: Mcl-1 HTRF IC50
[2] = test system: human multiple myeloma cell line, OPM-2; experiment: Cell viability assay (OPM-2 10 FBS), CellTiter-Glo; format: cell-based
Summary of the method: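 Cells were seeded at 3000 cells/well in RPMI 1640 with 10% FBS and exposed to serially diluted compounds for 16 h at 37 °C, 5% CO2.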

[3] = TR-FRET, Mcl-1(171-327) / biotin-Bim (51-76)
[4] = Homo sapiens, OPM-2, 16 h, read-out: OPM-2 10% FBS IC50 IP, OPM-2 cells, 10% FBS, 16 h, CellTiter-Glo
[5] = read-out: OPM-2 10% FBS IC50 IP, OPM-2 cells, 10% FBS, 16 h, CellTiter-Glo
[6] = 0.1 nM Mcl-1(171-327), 0.05 nM biotin-Bim (51-76)

recombinant human Mcl-1 (residues 171-327) / Bim interaction, sequence (Q07820 171-327): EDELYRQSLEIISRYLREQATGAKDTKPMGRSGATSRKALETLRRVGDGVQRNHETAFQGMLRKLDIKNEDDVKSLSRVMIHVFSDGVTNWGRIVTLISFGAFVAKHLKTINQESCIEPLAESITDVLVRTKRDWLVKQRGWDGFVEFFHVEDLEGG

Compound | IC50 [1, 3] | IC50 [2, 4] | IC50 [2, 5] | other results
C[C@@H]1[C@@H](C)C/C=C/[C@@](O)(C#N)[C@@H]2CC[C@H]2CN2C[C@@]3(CCCc4cc(Cl)ccc43)COc3ccc(cc32)C(=O)NS1(=O)=O [Example 100235, (1S,3′R,6′R,7′S,8′E,11′S,12′R)-6-chloro-7′-hydroxy-11′,12′-dimethyl-15′-oxo-3,4-dihydro-2H-spiro[naphthalene-1,22′-[20]oxa[13]thia[1,14]diazatetracyclo [14.7.2.0~3,6~.0~19,24~]pentacosa[8,16,18,24]tetraene]-7′-carbonitrile 13′,13′-dioxide] | 1.34 nM | 644 nM |  | 
CO[C@@]1(c2cnccc2F)/C=C/C[C@H](C)[C@@H](C)S(=O)(=O)NC(=O)c2ccc3c(c2)N(C[C@@H]2CC[C@H]21)C[C@@]1(CCCc2cc(Cl)ccc21)CO3 (single isomer, unassigned) [Example 100538] | 1.47 nM | 2400 nM |  | 
CO[C@]1(C#CCN2CCOCC2)/C=C/C[C@H](C)[C@@H](C)S(=O)(=O)NC(=O)c2ccc3c(c2)N(C[C@@H]2CC[C@H]21)C[C@@]1(CCCc2cc(Cl)ccc21)CO3 [Example 100409, (1S,3′R,6′R,7′R,8′E,11′S,12′R)-6-chloro-7′-methoxy-11′,12′-dimethyl-7′-(3-(4-morpholinyl)-1-propyn-1-yl)-3,4-dihydro-2H,15′H-spiro[naphthalene-1,22′-[20]oxa[13]thia[1,14]diazatetracyclo [14.7.2.0~3,6~.0~19,24~]pentacosa[8,16,18,24]tetraen]-15′-one 13′,13′-dioxide] | 0.124 nM |  | 206 nM | 
C[C@@H]1[C@@H](C)C/C=C/[C@@](O)(c2cncc(-c3ccccc3)c2)[C@@H]2CC[C@H]2CN2C[C@@]3(CCCc4cc(Cl)ccc43)COc3ccc(cc32)C(=O)NS1(=O)=O (single isomer, unassigned) [Example 100534] | 0.799 nM | 542 nM |  | 
CO[C@@]1(CC(=O)N2CCN(C)C[C@H]2C)/C=C/C[C@H](C)[C@@H](C)S(=O)(=O)NC(=O)c2ccc3c(c2)N(C[C@@H]2CC[C@H]21)C[C@@]1(CCCc2cc(Cl)ccc21)CO3 (single isomer, unassigned) [Example 100479] | 0.758 nM |  | 332 nM | 
C[C@@H]1[C@@H](C)C/C=C/[C@@](O)(C#CCCO)[C@@H]2CC[C@H]2CN2C[C@@]3(CCCc4cc(Cl)ccc43)COc3ccc(cc32)C(=O)NS1(=O)=O [Example 100422, (1S,3′R,6′R,7′S,8′E,11′S,12′R)-6-chloro-7′-hydroxy-7′-(4-hydroxy-1-butyn-1-yl)-11′,12′-dimethyl-3,4-dihydro-2H,15′H-spiro[naphthalene-1,22′-[20]oxa[13]thia[1,14]diazatetracyclo [14.7.2.0~3,6~.0~19,24~]pentacosa[8,16,18,24]tetraen]-15′-one 13′,13′-dioxide] | 0.174 nM | 182 nM |  | 
C[C@@H]1[C@@H](C)CCC[C@@]2(C[C@H]2C(=O)N2CCN3CCOC[C@H]3C2)[C@@H]2CC[C@H]2CN2C[C@@]3(CCCc4cc(Cl)ccc43)COc3ccc(cc32)C(=O)NS1(=O)=O [Example 100304, (1R,2R,3′R,6′R,11′S,12′R,22′S)-6″-chloro-2-((9aR)-hexahydropyrazino[2,1-c][1,4]oxazin-8(1H)-ylcarbonyl)-11′,12′-dimethyl-3″,4″-dihydro-2″H,15′H-dispiro[cyclopropane-1,7′-[20]oxa[13]thia[1,14]diazatetracyclo [14.7.2.0~3,6~.0~19,24~]pentacosa[16,18,24]triene-22′,1″-naphthalen]-15′-one 13′,13′-dioxide] | 0.311 nM |  | 464 nM | 
C[C@@H]1[C@@H](C)CCC[C@](O)(COCCN(C)C)[C@@H]2CC[C@H]2CN2C[C@@]3(CCCc4cc(Cl)ccc43)COc3ccc(cc32)C(=O)NS1(=O)=O (stereo in doubt) [Example 100196] | 0.461 nM |  | 358 nM | 
C[C@@H]1[C@@H](C)C/C=C/[C@@](O)(C(F)F)[C@@H]2CC[C@H]2CN2C[C@@]3(CCCc4cc(Cl)ccc43)COc3ccc(cc32)C(=O)NS1(=O)=O [Example 100070, (1S,3′R,6′R,7′S,8′E,11′S,12′R)-6-chloro-7′-(difluoromethyl)-7′-hydroxy-11′,12′-dimethyl-3,4-dihydro-2H,15′H-spiro[naphthalene-1,22′-[20]oxa[13]thia[1,14]diazatetracyclo [14.7.2.0~3,6~.0~19,24~]pentacosa[8,16,18,24]tetraen]-15′-one 13′,13′-dioxide] | 4.85 nM |  | 1070 nM | 
CO[C@@]1(Cc2nc(CN3CCOCC3)c(C)o2)/C=C/C[C@H](C)[C@@H](C)S(=O)(=O)NC(=O)c2ccc3c(c2)N(C[C@@H]2CC[C@H]21)C[C@@]1(CCCc2cc(Cl)ccc21)CO3 [Example 100587, (1S,3′R,6′R,7′S,8′E,11′S,12′R)-6-chloro-7′-methoxy-11′,12′-dimethyl-7′-((5-methyl-4-(4-morpholinylmethyl)-1,3-oxazol-2-yl)methyl)-3,4-dihydro-2H,15′H-spiro[naphthalene-1,22′-[20]oxa[13]thia[1,14]diazatetracyclo [14.7.2.0~3,6~.0~19,24~]pentacosa[8,16,18,24]tetraen]-15′-one 13′,13′-dioxide] | 0.136 nM | 177 nM |  | 
C[C@@H]1[C@@H](C)C/C=C/[C@](O)(c2ccncn2)[C@@H]2CC[C@H]2CN2C[C@@]3(CCCc4cc(Cl)ccc43)COc3ccc(cc32)C(=O)NS1(=O)=O [Example 100361, (1S,3′R,6′R,7′R,8′E,11′S,12′R)-6-chloro-7′-hydroxy-11′,12′-dimethyl-7′-(4-pyrimidinyl)-3,4-dihydro-2H,15′H-spiro[naphthalene-1,22′-[20]oxa[13]thia[1,14]diazatetracyclo [14.7.2.0~3,6~.0~19,24~]pentacosa[8,16,18,24]tetraen]-15′-one 13′,13′-dioxide] | 0.208 nM | 155 nM |  | 
C[C@@H]1[C@@H](C)CCC[C@@](O)(COS(C)(=O)=O)[C@@H]2CC[C@H]2CN2C[C@@]3(CCCc4cc(Cl)ccc43)COc3ccc(cc32)C(=O)NS1(=O)=O [Example 100271, ((1S,3′R,6′R,7′S,11′S,12′R)-6-chloro-7′-hydroxy-11′,12′-dimethyl-13′,13′-dioxido-15′-oxo-3,4-dihydro-2H-spiro[naphthalene-1,22′-[20]oxa[13]thia[1,14]diazatetracyclo [14.7.2.0~3,6~.0~19,24~]pentacosa[16,18,24]trien]-7′-yl)methyl methanesulfonate] |  |  | 6120 nM | IC50 [1]: 2.48 nM
CC[C@]1(O)CCC[C@H](C)[C@@H](C)S(=O)(=O)NC(=O)c2ccc3c(c2)N(C[C@@H]2CC[C@H]21)C[C@@]1(CCCc2cc(Cl)ccc21)CO3 [Example 100076, (1S,3′R,6′R,7′S,11′S,12′R)-6-chloro-7′-ethyl-7′-hydroxy-11′,12′-dimethyl-3,4-dihydro-2H,15′H-spiro[naphthalene-1,22′-[20]oxa[13]thia[1,14]diazatetracyclo [14.7.2.0~3,6~.0~19,24~]pentacosa[16,18,24]trien]-15′-one 13′,13′-dioxide] | 9.66 nM | 2670 nM |  | 
CCO[C@]1(CN2CCN3CCS(=O)(=O)C[C@@H]3C2)/C=C/C[C@H](C)[C@@H](C)S(=O)(=O)NC(=O)c2ccc3c(c2)N(C[C@@H]2CC[C@H]21)C[C@@]1(CCCc2cc(Cl)ccc21)CO3 [Example 121] |  |  |  | IC50 [1, 6]: 0.084 nM; IC50 ([2]; read-out: OPM-2 10% FBS IC50 IP, OPM-2 cells, 10% FBS, 16 h incubation): 120 nM
CO[C@@]1(CCCO)/C=C/C[C@H](C)[C@@H](C)S(=O)(=O)NC(=O)c2ccc3c(c2)N(C[C@@H]2CC[C@H]21)C[C@@]1(CCCc2cc(Cl)ccc21)CO3 [Example 100178, (1S,3′R,6′R,7′S,8′E,11′S,12′R)-6-chloro-7′-(3-hydroxypropyl)-7′-methoxy-11′,12′-dimethyl-3,4-dihydro-2H,15′H-spiro[naphthalene-1,22′-[20]oxa[13]thia[1,14]diazatetracyclo [14.7.2.0~3,6~.0~19,24~]pentacosa[8,16,18,24]tetraen]-15′-one 13′,13′-dioxide] | 0.432 nM |  | 237 nM | 
CO[C@@]1(Cc2cc(C)on2)/C=C/C[C@H](C)[C@@H](C)S(=O)(=O)NC(=O)c2ccc3c(c2)N(C[C@@H]2CC[C@H]21)C[C@@]1(CCCc2cc(Cl)ccc21)CO3 [Example 100552, (1S,3′R,6′R,7′S,8′E,11′S,12′R)-6-chloro-7′-methoxy-11′,12′-dimethyl-7′-((5-methyl-1,2-oxazol-3-yl)methyl)-3,4-dihydro-2H,15′H-spiro[naphthalene-1,22′-[20]oxa[13]thia[1,14]diazatetracyclo [14.7.2.0~3,6~.0~19,24~]pentacosa[8,16,18,24]tetraen]-15′-one 13′,13′-dioxide] | 0.065 nM | 957 nM |  | 
CO[C@@]1(CN2CCC3(CC2)COC3)/C=C/C[C@H](C)[C@@H](C)S(=O)(=O)NC(=O)c2ccc3c(c2)N(C[C@@H]2CC[C@H]21)C[C@@]1(CCCc2cc(Cl)ccc21)CO3 [Example 267, (1S,3′R,6′R,7′S,8′E,11′S,12′R)-6-chloro-7′-methoxy-11′,12′-dimethyl-7′-(2-oxa-7-azaspiro[3.5]non-7-ylmethyl)-3,4-dihydro-2H,15′H-spiro[naphthalene-1,22′-[20]oxa[13]thia[1,14]diazatetracyclo [14.7.2.0~3,6~.0~19,24~]pentacosa[8,16,18,24]tetraen]-15′-one 13′,13′-dioxide] |  |  |  | IC50 [1, 6]: 0.297 nM; IC50 ([2]; Homo sapiens, OPM-2, 16 h, read-out: OPM-2 10% FBS IC50 IP, OPM-2 cells, 10% FBS, 16 h incubation): 250 nM
